# Experimental data from ChEMBL document CHEMBL5126592, “Design, synthesis and activity against drug-resistant bacteria evaluation of C-20, C-23 modified 5-O-mycaminosyltylonolide derivatives” (Eur J Med Chem, 2022).
# Activity calls are given as the source filed them. The rule behind the calls is not given here.
# What was measured:
# [1] = Genotoxicity in Salmonella typhimurium TA1537 assessed as number of revertants at 8x10^-6 mg/plate incubated for 72 hrs in absence of liver S9 fraction by Ames test (reference value: 22.67 +/- 2.52); format: toxicity; conditions: salmonella enterica subsp. enterica serovar typhimurium, s9, 72 h
# [2] = Genotoxicity in Salmonella typhimurium TA100 assessed as number of revertants at 1.6x10^-6 mg/plate incubated for 72 hrs in absence of liver S9 fraction by Ames test (reference value: 221.67 +/- 15.57); format: toxicity; conditions: salmonella enterica subsp. enterica serovar typhimurium, s9, 72 h
# [3] = Genotoxicity in Salmonella typhimurium TA1535 assessed as number of revertants at 2x10^-4 mg/plate incubated for 72 hrs in absence of liver S9 fraction by Ames test (reference value: 14.33 +/- 0.58); format: toxicity; conditions: salmonella enterica subsp. enterica serovar typhimurium, s9, 72 h
# [4] = Genotoxicity in Salmonella typhimurium TA1537 assessed as number of revertants at 2x10^-4 mg/plate incubated for 72 hrs in presence of liver S9 fraction by Ames test (reference value: 20 +/- 5); format: toxicity, subcellular; conditions: salmonella enterica subsp. enterica serovar typhimurium, s9, 72 h
# Staphylococcus aureus [5] = assay: Antibacterial activity against Staphylococcus aureus ATCC 29213 at pH 8.6 incubated for 16 to 20 hrs in presence of 5% foetal bovine serum by broth microdilution method; format: functional; conditions: time 16-20 hrs
# [6] = tested on: Streptococcus dysgalactiae; assay: Antibacterial activity against Streptococcus dysgalactiae incubated for 16 to 20 hrs by broth microdilution method; format: functional; conditions: time 16-20 hrs
# Staphylococcus aureus [7] = assay: Antibacterial activity against Staphylococcus aureus ATCC 29213 at pH 8.6 incubated for 16 to 20 hrs in presence of 25% foetal bovine serum by broth microdilution method; format: functional; conditions: time 16-20 hrs
# [8] = Genotoxicity in Salmonella typhimurium TA1535 assessed as number of revertants at 4x10^-5 mg/plate incubated for 72 hrs in absence of liver S9 fraction by Ames test (reference value: 14.33 +/- 0.58); format: toxicity; conditions: salmonella enterica subsp. enterica serovar typhimurium, s9, 72 h
# [9] = Genotoxicity in Salmonella typhimurium TA98 assessed as number of revertants at 1x10^-3 mg/plate incubated for 72 hrs in presence of liver S9 fraction by Ames test (reference value: 43.67+/- 7.1); format: toxicity, subcellular; conditions: salmonella enterica subsp. enterica serovar typhimurium, s9, 72 h
# [10] = Genotoxicity in Salmonella typhimurium TA102 assessed as number of revertants at 8x10^-6 mg/plate incubated for 72 hrs in presence of liver S9 fraction by Ames test (reference value: 465.33 +/- 18.04); format: toxicity, subcellular; conditions: salmonella enterica subsp. enterica serovar typhimurium, s9, 72 h
# [11] = Toxicity in Kunming mouse infected with Staphylococcus aureus ATCC 25923 assessed as appearance of pink and spongy lungs at 20 to 40 mg/kg, iv measured after 1 hr by hematoxylin and eosin staining based microscopic analysis; format: organism-based; conditions: in vivo, dose 20-40 mg/kg
# [12] = Genotoxicity in Salmonella typhimurium TA100 assessed as number of revertants at 4x10^-5 mg/plate incubated for 72 hrs in absence of liver S9 fraction by Ames test (reference value: 221.67 +/- 15.57); format: toxicity; conditions: salmonella enterica subsp. enterica serovar typhimurium, s9, 72 h
# [13] = Genotoxicity in Salmonella typhimurium TA1537 assessed as number of revertants at 1.6x10^-6 mg/plate incubated for 72 hrs in presence of liver S9 fraction by Ames test (reference value: 20 +/- 5); format: toxicity, subcellular; conditions: salmonella enterica subsp. enterica serovar typhimurium, s9, 72 h
# Staphylococcus aureus [14] = assay: Antibacterial activity against Staphylococcus aureus ATCC 29213 at pH 8 incubated for 16 to 20 hrs by broth microdilution method; format: functional; conditions: time 16-20 hrs
# [15] = Genotoxicity in Salmonella typhimurium TA100 assessed as number of revertants at 8x10^-6 mg/plate incubated for 72 hrs in absence of liver S9 fraction by Ames test (reference value: 221.67 +/- 15.57); format: toxicity; conditions: salmonella enterica subsp. enterica serovar typhimurium, s9, 72 h
# Escherichia coli [16] = assay: Induction of drug resistance in Escherichia coli ATCC 25922 assessed as increase in MIC measured after 30 passages by broth microdilution method; format: functional
# Staphylococcus aureus [17] = assay: Antibacterial activity against Staphylococcus aureus ATCC 29213 at pH 8.6 incubated for 16 to 20 hrs in absence of foetal bovine serum by broth microdilution method; format: functional; conditions: time 16-20 hrs
# [18] = Genotoxicity in Salmonella typhimurium TA1537 assessed as number of revertants at 1x10^-3 mg/plate incubated for 72 hrs in presence of liver S9 fraction by Ames test (reference value: 20 +/- 5); format: toxicity, subcellular; conditions: salmonella enterica subsp. enterica serovar typhimurium, s9, 72 h
# Staphylococcus aureus [19] = assay: Antibacterial activity against Staphylococcus aureus ATCC 29213 incubated for 16 to 20 hrs using 10^7 CFU/ml bacterial inoculum by broth microdilution method; format: functional; conditions: time 16-20 hrs
# [20] = Genotoxicity in Salmonella typhimurium TA98 assessed as number of revertants at 1x10^-3 mg/plate incubated for 72 hrs in absence of liver S9 fraction by Ames test (reference value: 57.33 +/- 3.06); format: toxicity; conditions: salmonella enterica subsp. enterica serovar typhimurium, s9, 72 h
# Escherichia coli [21] = assay: Bactericidal activity against Escherichia coli ATCC 25922 incubated for 20 to 24 hrs by CLSI based analysis; format: functional; conditions: time 20-24 hrs
# Staphylococcus aureus [22] = assay: Antibacterial activity against Staphylococcus aureus ATCC 29213 at pH 7.6 incubated for 16 to 20 hrs by broth microdilution method; format: functional; conditions: time 16-20 hrs
# Escherichia coli [23] = assay: Ratio of MBC to MIC for Escherichia coli ATCC 25922; format: functional
# Escherichia coli [24] = assay: Antibacterial activity against Escherichia coli ATCC 25922 incubated for 16 to 20 hrs using 10^7 CFU/ml bacterial inoculum by broth microdilution method; format: functional; conditions: time 16-20 hrs
# [25] = Genotoxicity in Salmonella typhimurium TA100 assessed as number of revertants at 4x10^-5 mg/plate incubated for 72 hrs in presence of liver S9 fraction by Ames test (reference value: 204.33 +/- 8.14); format: toxicity, subcellular; conditions: salmonella enterica subsp. enterica serovar typhimurium, s9, 72 h
# Escherichia coli [26] = assay: Antibacterial activity against Escherichia coli ATCC 25922 at pH 8 incubated for 16 to 20 hrs by broth microdilution method; format: functional; conditions: time 16-20 hrs
# Escherichia coli [27] = assay: Antibacterial activity against Escherichia coli ATCC 25922 incubated for 16 to 20 hrs using 10^6 CFU/ml bacterial inoculum by broth microdilution method; format: functional; conditions: time 16-20 hrs
# [28] = Genotoxicity in Salmonella typhimurium TA100 assessed as number of revertants at 2x10^-4 mg/plate incubated for 72 hrs in absence of liver S9 fraction by Ames test (reference value: 221.67 +/- 15.57); format: toxicity; conditions: salmonella enterica subsp. enterica serovar typhimurium, s9, 72 h
# Enterococcus faecium = assay: Antibacterial activity against Enterococcus faecium incubated for 16 to 20 hrs by broth microdilution method; format: functional; conditions: time 16-20 hrs
# [29] = Genotoxicity in Salmonella typhimurium TA98 assessed as number of revertants at 4x10^-5 mg/plate incubated for 72 hrs in presence of liver S9 fraction by Ames test (reference value: 43.67+/- 7.1); format: toxicity, subcellular; conditions: salmonella enterica subsp. enterica serovar typhimurium, s9, 72 h
# Escherichia coli [30] = assay: Antibacterial activity against Escherichia coli ATCC 25922 incubated for 16 to 20 hrs in presence of 50% foetal bovine serum by broth microdilution method; format: functional; conditions: time 16-20 hrs
# [31] = Genotoxicity in Salmonella typhimurium TA1535 assessed as number of revertants at 2x10^-4 mg/plate incubated for 72 hrs in presence of liver S9 fraction by Ames test (reference value: 15.33 +/- 2.52); format: toxicity, subcellular; conditions: salmonella enterica subsp. enterica serovar typhimurium, s9, 72 h
# [32] = Genotoxicity in Salmonella typhimurium TA98 assessed as number of revertants at 8x10^-6 mg/plate incubated for 72 hrs in absence of liver S9 fraction by Ames test (reference value: 57.33 +/- 3.06); format: toxicity; conditions: salmonella enterica subsp. enterica serovar typhimurium, s9, 72 h
# Staphylococcus aureus [33] = assay: Antibacterial activity against Staphylococcus aureus ATCC 29213 at pH 7.8 incubated for 16 to 20 hrs by broth microdilution method; format: functional; conditions: time 16-20 hrs
smiles,measurement,setting,value
CC[C@H]1OC(=O)C[C@@H](O)[C@H](C)[C@@H](O[C@@H]2O[C@H](C)[C@@H](O)[C@H](N(C)C)[C@H]2O)[C@@H](CCN(C)Cc2cn(-c3cnc4ccccc4c3)nn2)C[C@@H](C)C(=O)/C=C/C(C)=C/[C@@H]1CN1CCCCCC1,Activity,[1],21.33
same,Activity,[2],157.67
same,Activity,[3],10.33
same,Activity,[4],15
same,MIC,Staphylococcus aureus [5],0.5 µg/mL
same,MIC,[6],0.25 µg/mL
same,MIC,Staphylococcus aureus [7],1 µg/mL
same,Activity,[8],6.33
same,Activity,[9],40.33
same,Activity,[10],466.67
same,Activity,[11],Non-Toxic
same,Activity,[12],201.67
same,Activity,[13],15
same,MIC,Staphylococcus aureus [14],≤ 0.0625 µg/mL
same,Activity,[15],226
same,Activity,Escherichia coli [16],Active
same,MIC,Staphylococcus aureus [17],0.25 µg/mL
same,Activity,[18],15.67
same,MIC,Staphylococcus aureus [19],0.25 µg/mL
same,Activity,[20],60.33
same,MBC,Escherichia coli [21],2 µg/mL
same,MIC,Staphylococcus aureus [22],0.25 µg/mL
same,Ratio,Escherichia coli [23],2
same,MIC,Escherichia coli [24],1 µg/mL
same,Activity,[25],162
same,MIC,Escherichia coli [26],0.25 µg/mL
same,MIC,Escherichia coli [27],0.5 µg/mL
same,Activity,[28],223.33
same,MIC,Enterococcus faecium,1 µg/mL
same,Activity,[29],44.67
same,MIC,Escherichia coli [30],4 µg/mL
same,Activity,[31],12.67
same,Activity,[32],63.33
same,MIC,Staphylococcus aureus [33],≤ 0.0625 µg/mL
